# Results reported in patent US20100129418A1, “METHOD OF INDUCING NEGATIVE CHEMOTAXIS USING AN ELLAGITANNIN OR GALLOTANNIN” (priority 2008, published 2010).
# Tested on: neutrophils
# Experiment: Chemorepulsion/chemoattraction transwell migration assay (Neuroprobe ChemoTx plates)
# Format: cell-based
# Settings: Homo sapiens, Neutrophil, 1 h, 1.1 mg/ml ellagic acid, CR mode, 1 hour at 37° C., read-out: fold induction of chemorepulsion as compared to media
# Experimental: The chemorepulsive activity of ellagic acid was determined as follows: • 1. Prior to beginning the assay, the following were prepared: • a. 0.5% Fetal Calf Serum (FCS) in Iscove's Modified Dulbecco's Medium (IMDM) (Assay Medium) (Both from ATCC). • b. Migratory cells at a concentration of 2×10^7 cells/ml in Assay Medium. • c. The indicated dilutions of ellagic acid Assay Medium. • 2. The assay plates were Neuroprobe ChemoTx plates, part number 206-3 (3 um pore size) for neutrophils. • 3. The plates were removed from packaging, leaving the membrane behind. • 4. 31 μl of the following solutions were pipetted into each well: • a. For media controls and for chemorepulsion samples, Assay Medium was used. • b. For chemoattraction samples, appropriate dilution of ligand was used. • 5. The membrane was carefully placed onto the plate, starting at one side and then slowly lowering the other edge onto the plate. • 6. 29 μl of the following were pipetted onto the top of each circle: • a. For media controls and chemoattraction samples, Assay Medium was used. • b. For chemorepulsion samples, the appropriate dilution of ligand was used. • 7. […] The assay plates were processed by Guava Easy Cyte Plus (using via cell count for read out). • 1. […] The Guava Easy Cyte Plus was used to read the plate and quantify the number of migrated cells. […]
compound,measurement,value
"O=c1oc2c(O)c(O)cc3c(=O)oc4c(O)c(O)cc1c4c23 [ellagic acid, 2,3,7,8-tetrahydroxy-chromeno[5,4,3-cde]chromene-5,10-dione]",fold induction at 1100 µg/mL,~55
